Results published in patent publication US12637499B2, “Adrenomedullin analog, method for producing the same, and pharmaceutical use thereof” (priority 2020, dated 2026).
Read-outs that look alike come from different tables or passages of the source. Where a SMILES comes first, the peptide text is derived from it. Bridges are numbered along the chain shown (N, C = ends). Where no end group is shown, it is not given here.

Assays:
in vivo [1] = details: male, Wistar, rat, sc, 50 nmol/kg; for AUC: in vivo
Method: (§1) Eight-week-old male Wistar rats were purchased from Charles River Laboratories Japan, Inc. The rats were grown with normal feeds in the absence of specific pathogens under cycles of a 12-hour light period and a 12-hour dark period. […] To determine plasma AM concentrations, 50 nmol/kg of AM or an AM analog was subcutaneously administered. A peripheral blood sample was collected from the tail vein into a test tube (containing 21 μg of aprotinin and 0.3 mg of EDTA-2Na) at predetermined times (0, 15, 30, 60, and 120 minutes after administration). The test tube was centrifuged at 1,700×g to afford plasma.

in vitro [2] = assay: in vitro
Method: After the lapse of a predetermined time, a 30-μl portion was taken out of the reaction solution, transferred into 170 μl of 0.1% aqueous solution of trifluoroacetic acid (TFA), and stored at −80° C. until analysis.
Quantitative analysis was performed for AM contained in the thus-obtained samples of a reaction mixture with serum or plasma by using specific fluoroimmunoassay (Tosoh Corporation) with two antibodies differing in their recognition sites. […] In the figure, the abscissa represents reaction time (min), and the ordinate represents concentration of AM (UM).
In the figure, the abscissa represents reaction time (min), and the ordinate represents concentration of AM or an AM analog (μM).
In the figure, the abscissa represents the type of AM or an AM analog, and the ordinate represents residual rates of AM or an AM analog (%).

[3] = 50 nmol/kg subcutaneous, Experiment VI
Method: as §1

in vivo [4] = assay: in vivo
Method: Seven-week-old male Wistar rats were prepared, and grown with normal feeds. To determine plasma AM concentrations, 50 nmol/kg of AM or an AM analog was subcutaneously administered. A peripheral blood sample was collected from the tail vein into a Kantan tube® (containing heparin Na, Eiken Chemical Co., Ltd., Tochigi, Japan) at predetermined times (0, 15, 30, 60, and 120 minutes after administration). The tube was centrifuged at 2,000×g. Plasma was collected from the tube, and transferred into a test tube (containing 21 μg of aprotinin and 0.3 mg of EDTA-2Na) and stored. […] In the figure, the abscissa represents elapsed time after subcutaneous administration (hr), and the ordinate represents concentration in plasma of AM or an AM analog (pM). In addition, maximum concentrations in blood (Cmax) of AM or the AM analogs in rat plasma after subcutaneous administration were calculated.

in vitro [5] = details: Experiment VIII; 10^−7 M, 37° C.; 1 hour after the beginning of reaction
Method: The stabilities of the AM analog peptides in serum were evaluated with the same procedure as in Experiment I except the following procedure. […] A reaction mixture containing 4 μL of phosphate buffer, 20 μL of human serum (Sigma-Aldrich Co. LLC, USA), and 14 μL of water was prepared. To the reaction mixture, 2 μL of AM or an AM analog peptide (2×10^−6 M, final concentration: 10^−7 M) was added, and reaction was initiated at 37° C. The reaction was terminated by addition of 160 μL of ELISA buffer to the reaction mixture 0, 1, or 4 hours after the beginning of reaction. […] In the figure, the abscissa represents reaction time (hr), and the ordinate represents concentration in serum of AM or an AM analog (%) represented as relative values to concentration of AM or an AM analog at the beginning of reaction (i.e., 0 hours after the beginning of reaction).

[6] = molecular target: AM type 1 receptor (AMI receptor) (UniProt Q16602 23-461; O60895 43-175, limits assumed); assay: cell-based or functional assay
Sequence of AM type 1 receptor (AMI receptor) (Q16602 23-461 limits assumed, chain 1 of 2): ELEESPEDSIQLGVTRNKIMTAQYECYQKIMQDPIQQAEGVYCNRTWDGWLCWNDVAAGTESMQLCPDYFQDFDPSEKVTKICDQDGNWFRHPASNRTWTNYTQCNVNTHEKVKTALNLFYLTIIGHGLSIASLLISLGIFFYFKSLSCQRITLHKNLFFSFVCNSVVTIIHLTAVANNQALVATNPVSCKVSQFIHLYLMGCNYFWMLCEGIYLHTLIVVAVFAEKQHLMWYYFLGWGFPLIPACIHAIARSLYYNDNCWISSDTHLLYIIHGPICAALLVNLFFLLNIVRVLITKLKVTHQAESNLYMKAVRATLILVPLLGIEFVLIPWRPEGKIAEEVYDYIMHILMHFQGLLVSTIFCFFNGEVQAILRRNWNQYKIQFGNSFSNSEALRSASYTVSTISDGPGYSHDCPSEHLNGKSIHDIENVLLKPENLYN
Sequence of AM type 1 receptor (AMI receptor) (O60895 43-175 limits assumed, chain 2 of 2): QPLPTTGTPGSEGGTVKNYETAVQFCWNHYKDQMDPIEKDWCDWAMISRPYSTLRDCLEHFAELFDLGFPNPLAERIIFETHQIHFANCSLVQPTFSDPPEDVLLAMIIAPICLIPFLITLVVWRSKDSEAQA

Molecule: CC[C@H](C)[C@H](NC(=O)[C@H](CCC(N)=O)NC(=O)[C@H](Cc1c[nH]cn1)NC(=O)[C@H](C)NC(=O)[C@H](CC(C)C)NC(=O)[C@H](CCCCN)NC(=O)[C@H](CCC(N)=O)NC(=O)[C@@H](NC(=O)[C@@H](NC(=O)[C@@H]1CSSC[C@H](NC(=O)CNC(=O)[C@H](Cc2ccccc2)NC(=O)[C@@H](N)CO)C(=O)N[C@@H](CCCNC(=N)N)C(=O)N[C@@H](Cc2ccccc2)C(=O)NCC(=O)N[C@@H]([C@@H](C)O)C(=O)N1)[C@@H](C)O)C(C)C)C(=O)N[C@@H](Cc1ccc(O)cc1)C(=O)N[C@@H](CCC(N)=O)C(=O)N[C@@H](Cc1ccccc1)C(=O)N[C@H](C(=O)N[C@@H](CC(=O)O)C(=O)N[C@@H](CCCCN)C(=O)N[C@@H](CC(=O)O)C(=O)N[C@@H](CCCCN)C(=O)N[C@@H](CC(=O)O)C(=O)N[C@@H](CC(N)=O)C(=O)N[C@H](C(=O)N[C@@H](C)C(=O)N1CCC[C@H]1C(=O)N[C@@H](C)C(=O)N[C@@H](CO)C(=O)N[C@@H](CCCCN)C(=O)N[C@H](C(=O)N[C@@H](CO)C(=O)N1CCC[C@H]1C(=O)N[C@@H](CCC(N)=O)C(=O)NCC(=O)N[C@@H](Cc1ccc(O)cc1)C(N)=O)[C@@H](C)CC)C(C)C)[C@@H](C)O [[Ala-44]hAM(13-52), SFGCRFGTCTVQKLAHQIYQFTDKDKDNVAPASKISPQGY-CONH2] (H-SFGCRFGTCTVQKLAHQIYQFTDKDKDNVAPASKISPQGY-NH2; disulfide 4-9; N-terminus assumed)
- AUC (in vivo [1]): 0.578 nM·h
- Cmax (in vivo [1]; plasma): 1.17 nM
- half-life (in vivo [1]; plasma): 82.4 min
- change in amount with the lapse of reaction time in reaction mixture with serum (in vitro [2]; Experiment IV, up to 240 minutes): almost no decrease or only slight decrease in amount
- remaining at 4 h (in vitro [2]; serum, pH 7.1): 96.4%
- detection in rat plasma after subcutaneous administration [3]: detected in rat plasma 15 minutes after administration
- Cmax relative to that of hAM(1-52) ([3]; rat): ≥ 100 times
- detection in rat plasma after subcutaneous administration (in vivo [4]; 50 nmol/kg subcutaneous, Experiment X): detected in rat plasma 15 minutes after administration
- Cmax (in vivo [4]; male, Wistar, rat, in vivo, sc, 50 nmol/kg): 0.777 nM

Molecule: CC[C@H](C)[C@H](NC(=O)[C@H](CCC(N)=O)NC(=O)[C@H](Cc1c[nH]cn1)NC(=O)[C@H](C)NC(=O)[C@H](CC(C)C)NC(=O)[C@H](CCCCN)NC(=O)[C@H](CCC(N)=O)NC(=O)[C@@H](NC(=O)[C@@H](NC(=O)[C@@H]1CSSC[C@H](NC(=O)CNC(=O)[C@H](Cc2ccccc2)NC(=O)[C@@H](N)CO)C(=O)N[C@@H](CCCNC(=N)N)C(=O)N[C@@H](Cc2ccccc2)C(=O)NCC(=O)N[C@@H]([C@@H](C)O)C(=O)N1)[C@@H](C)O)C(C)C)C(=O)N[C@@H](Cc1ccc(O)cc1)C(=O)N[C@@H](CCC(N)=O)C(=O)N[C@@H](Cc1ccccc1)C(=O)N[C@H](C(=O)N[C@@H](CC(=O)O)C(=O)N[C@@H](CCCCN)C(=O)N[C@@H](CC(=O)O)C(=O)N[C@@H](CCCCN)C(=O)N[C@@H](CC(=O)O)C(=O)N[C@@H](CC(N)=O)C(=O)N[C@H](C(=O)N[C@@H](C)C(=O)N1CCC[C@H]1C(=O)N[C@@H](CCCNC(=N)N)C(=O)N[C@@H](CO)C(=O)N[C@@H](CCCCN)C(=O)N[C@H](C(=O)N[C@@H](CO)C(=O)N1CCC[C@H]1C(=O)N[C@@H](CCC(N)=O)C(=O)NCC(=O)N[C@@H](Cc1ccc(O)cc1)C(N)=O)[C@@H](C)CC)C(C)C)[C@@H](C)O [hAM(13-52), SFGCRFGTCTVQKLAHQIYQFTDKDKDNVAPRSKISPQGY-CONH2, reference compound]
- AUC (in vivo [1]): 0.0832 nM·h
- Cmax (in vivo [1]; plasma): 0.165 nM
- presence in reaction mixture with human serum (in vitro [5]): substantially disappeared
- concentration of AM or AM analog in reaction mixture with serum (in vitro [2]; Experiment IV, 240 minutes after the beginning of reaction): below the detection limit
- residual rate in reaction mixture with serum (in vitro [2]; Experiment IV, 240 minutes vs 0 minutes after the beginning of reaction): 0.2%
- detection in rat plasma after subcutaneous administration [3]: hardly detected

B1: [des-Arg-44]hAM(13-52) (peptide)
peptide: SFGCRFGTCTVQKLAHQIYQFTDKDKDNVAPSKISPQGY-NH2
modifications: disulfide 4-9; N-terminus assumed
SMILES: CC[C@H](C)[C@H](NC(=O)[C@H](CCC(N)=O)NC(=O)[C@H](Cc1c[nH]cn1)NC(=O)[C@H](C)NC(=O)[C@H](CC(C)C)NC(=O)[C@H](CCCCN)NC(=O)[C@H](CCC(N)=O)NC(=O)[C@@H](NC(=O)[C@@H](NC(=O)[C@@H]1CSSC[C@H](NC(=O)CNC(=O)[C@H](Cc2ccccc2)NC(=O)[C@@H](N)CO)C(=O)N[C@@H](CCCNC(=N)N)C(=O)N[C@@H](Cc2ccccc2)C(=O)NCC(=O)N[C@@H]([C@@H](C)O)C(=O)N1)[C@@H](C)O)C(C)C)C(=O)N[C@@H](Cc1ccc(O)cc1)C(=O)N[C@@H](CCC(N)=O)C(=O)N[C@@H](Cc1ccccc1)C(=O)N[C@H](C(=O)N[C@@H](CC(=O)O)C(=O)N[C@@H](CCCCN)C(=O)N[C@@H](CC(=O)O)C(=O)N[C@@H](CCCCN)C(=O)N[C@@H](CC(=O)O)C(=O)N[C@@H](CC(N)=O)C(=O)N[C@H](C(=O)N[C@@H](C)C(=O)N1CCC[C@H]1C(=O)N[C@@H](CO)C(=O)N[C@@H](CCCCN)C(=O)N[C@H](C(=O)N[C@@H](CO)C(=O)N1CCC[C@H]1C(=O)N[C@@H](CCC(N)=O)C(=O)NCC(=O)N[C@@H](Cc1ccc(O)cc1)C(N)=O)[C@@H](C)CC)C(C)C)[C@@H](C)O
- logarithmic values of 50%-effective concentration (pEC50) for intracellular cAMP concentration-increasing activity [6]: 8.71 pEC50

B2: [Gly-44]hAM(13-52) (peptide)
peptide: SFGCRFGTCTVQKLAHQIYQFTDKDKDNVAPGSKISPQGY-NH2
modifications: disulfide 4-9; N-terminus assumed
SMILES: CC[C@H](C)[C@H](NC(=O)[C@H](CCC(N)=O)NC(=O)[C@H](Cc1c[nH]cn1)NC(=O)[C@H](C)NC(=O)[C@H](CC(C)C)NC(=O)[C@H](CCCCN)NC(=O)[C@H](CCC(N)=O)NC(=O)[C@@H](NC(=O)[C@@H](NC(=O)[C@@H]1CSSC[C@H](NC(=O)CNC(=O)[C@H](Cc2ccccc2)NC(=O)[C@@H](N)CO)C(=O)N[C@@H](CCCNC(=N)N)C(=O)N[C@@H](Cc2ccccc2)C(=O)NCC(=O)N[C@@H]([C@@H](C)O)C(=O)N1)[C@@H](C)O)C(C)C)C(=O)N[C@@H](Cc1ccc(O)cc1)C(=O)N[C@@H](CCC(N)=O)C(=O)N[C@@H](Cc1ccccc1)C(=O)N[C@H](C(=O)N[C@@H](CC(=O)O)C(=O)N[C@@H](CCCCN)C(=O)N[C@@H](CC(=O)O)C(=O)N[C@@H](CCCCN)C(=O)N[C@@H](CC(=O)O)C(=O)N[C@@H](CC(N)=O)C(=O)N[C@H](C(=O)N[C@@H](C)C(=O)N1CCC[C@H]1C(=O)NCC(=O)N[C@@H](CO)C(=O)N[C@@H](CCCCN)C(=O)N[C@H](C(=O)N[C@@H](CO)C(=O)N1CCC[C@H]1C(=O)N[C@@H](CCC(N)=O)C(=O)NCC(=O)N[C@@H](Cc1ccc(O)cc1)C(N)=O)[C@@H](C)CC)C(C)C)[C@@H](C)O
- logarithmic values of 50%-effective concentration (pEC50) for intracellular cAMP concentration-increasing activity [6]: 7.96 pEC50
